Results on 80 compounds are retold here after PubChem BioAssay AID720589 (Broad Institute, 2013).

The test deals with HepG2 viability, ATP luminescence (CellTiter-Glo), 72 h. Nature of the test: ATP-based viability loss in HepG2 cells – cell-based, CellTiter-Glo luminescence, cherry-pick, set 3, cytotoxicity control, dose response (AID 720589). (In general: ATP-based viability assays read luminescence as a measure of living cells.)
For `Cc1ccc(S(=O)(=O)Nc2ccc3c(c2)C(=O)N([C@@H](C)CO)C[C@@H](C)[C@@H](CN(C)Cc2ccc(C(=O)Nc4ccccc4N)cc2)O3)cc1`, the AC35 was 6.33 µM.
With `C/C(=C\c1ccccc1)C(=O)N1CCC=CC1=O` the figure was 4.88 µM.
In the case of `Cc1ccc(S(=O)(=O)Nc2ccc3c(c2)C(=O)N([C@H](C)CO)C[C@H](C)[C@@H](CN(C)Cc2ccc(C(F)(F)F)cc2)OCCCC[C@H](C)O3)cc1` it was 10 µM; in that of `OCC1OC(n2cnc3c(NCc4ccco4)ncnc32)C(O)C1O` (stereo not given), 3.82 µM.
In the case of `COc1ccccc1-c1ccc(OCCCN2CCC(C(O)(c3ccccc3)c3ccccc3)CC2)cc1`, the AC35 was 7.47 µM.
With `COc1ccccc1C(CCNCc1ccc(N(C)C)cc1)c1ccc(OC(C)C)cc1` (stereo not given) the figure was 4.74 µM.
In the case of `CC(=NNc1cc(C)c2ccccc2n1)c1ccccn1` it was 2.66 µM; in that of `Cc1ccc(/C=N/Nc2ccnc3cc(Cl)ccc23)c(C)c1`, 5.3 µM; in that of `CN(Cc1cnc2nc(N)nc(N)c2n1)c1ccc(C(=O)N[C@@H](CCC(=O)O)C(=O)O)cc1`, 0.0224 µM.
With `C[C@H]1CN([C@@H](C)CO)C(=O)c2cccc(NC(=O)c3ccc(-c4nccs4)cc3)c2O[C@@H]1CN(C)Cc1ccc(C(=O)Nc2ccccc2N)cc1` the figure was 4.1 µM.
As for `COc1ccc(NC(=O)N2CCCCN3[C@H](CO)[C@H](c4ccc(C#CCC(C)C)cc4)[C@H]3C2)cc1`, the AC35 is 8.68 µM.
With `Cc1cc(C)cc(N2C(=O)NC(=O)/C(=C\C=C\c3ccco3)C2=O)c1` the figure was 7.27 µM; with `COc1cccc(-c2cc(NC=O)c3ncc(-c4ccc(C(C)=O)cc4)n3c2)c1`, 15.5 µM.
In the case of `CC(C)N1C/C(=C/c2ccsc2)C(=O)/C(=C/c2ccsc2)C1` it was 11.7 µM.
In the case of `C[C@@H]1CN([C@@H](C)CO)C(=O)Cc2cc(N(C)C)ccc2O[C@H]1CN(C)Cc1ccc(C(=O)Nc2ccccc2N)cc1` it was 2.38 µM.
On to `Oc1cccc(-c2nnc(-c3cccc(O)c3)nn2)c1`, for which the AC35 is 17.5 µM.
With `C(=Cc1nc2ccccc2o1)c1ccc2c(c1)OCO2` the figure was 19.5 µM; with `C[C@H](CO)N1C[C@H](C)[C@H](CN(C)CC2CCCCC2)Oc2ccc(NC(=O)CCCCCC(=O)Nc3ccccc3N)cc2CC1=O`, 0.219 µM; with `Nc1nc(N)c2c(ccc3nccc32)[nH]1`, 4.84 µM.
In the case of `O=C(Nc1ccccc1F)N1CCCCN2[C@H](CO)[C@H](c3ccc(/C=C/c4ccccc4)cc3)[C@H]2C1` it was 4.41 µM.
With `Cc1cc2c(C(C)C)c(O)c(O)c(C=O)c2c(O)c1-c1c(C)cc2c(C(C)C)c(O)c(O)c(C=O)c2c1O` the figure was 13.7 µM.
With `O=C(Nc1ccc2c(c1)OCO2)N1C[C@@H]2N[C@H](C1)C2c1ccc(C=Cc2ccccc2)cc1` (stereo not given in full), the AC35 is 5.42 µM.
For `CCc1cccc2c(C(=O)CN3C(=O)NC4(CCCCC4)C3=O)c[nH]c12`, the AC35 was 8.59 µM.
In the case of `C[C@H]1CN([C@@H](C)CO)C(=O)c2cc(N(C)C)ccc2O[C@H]1CN(C)Cc1ccc(C(=O)Nc2ccccc2N)cc1` it was 0.298 µM.
On to `C(=N\Nc1nc2ccccc2[nH]1)/c1ccccn1`, for which the AC35 is 7.93 µM.
For the compound `Cc1ccc(C(C)C)c(OCc2ccc(C(=O)N/N=C/c3ccc(O)cc3O)cc2)c1`, the AC35 was 4.24 µM.
With `C[C@H]1CN([C@@H](C)CO)C(=O)c2cc(NC(=O)C3CCCCC3)ccc2O[C@H]1CN(C)Cc1ccc(C(=O)Nc2ccccc2N)cc1`, the AC35 was 1.47 µM.
With `CN(C[C@H]1N[C@@H](CO)[C@@H]1c1ccc(C2=CCCC2)cc1)C(=O)c1ccc(F)cc1` the figure was 4.57 µM; with `NC1=CC(=O)C(=O)c2cccnc21`, 13.7 µM.
In the case of `CC1(C)N=C(N)N=C(N)N1c1ccc(OCCCOc2ccccc2)c(Cl)c1`, the AC35 is 9.77 µM.
With `C[C@@H]1CCCCO[C@H](CN(C)Cc2ccc(C(F)(F)F)cc2)[C@H](C)CN([C@H](C)CO)C(=O)c2cc(NC(=O)CCCN(C)C)ccc2O1` the figure was 9.15 µM; with `O=c1[nH]c(=O)n([C@H]2C[C@H](O)[C@@H](CO)O2)cc1C(F)(F)F`, 15.6 µM.
With `C[C@@H]1CN([C@@H](C)CO)C(=O)c2cccc(NS(=O)(=O)c3ccccc3)c2O[C@@H]1CN(C)Cc1ccc(C(=O)Nc2ccccc2N)cc1` the figure was 2.11 µM; with `C[C@@H]1CN([C@@H](C)CO)C(=O)c2cc(NS(=O)(=O)c3ccc(F)cc3)ccc2O[C@@H]1CN(C)Cc1ccc(C(=O)Nc2ccccc2N)cc1`, 0.354 µM.
With `C[C@@H]1CN([C@H](C)CO)S(=O)(=O)c2ccc(C#CC(C)(C)O)cc2O[C@H]1CN(C)Cc1ccc(-c2ccccc2)cc1` the figure was 6.19 µM.
For `C[C@H]1CCCCO[C@H](CN(C)Cc2ccc(C(F)(F)F)cc2)[C@@H](C)CN([C@@H](C)CO)C(=O)c2cc(NC(=O)Nc3ccccc3)ccc2O1`, the AC35 was 22.4 µM.
For the compound `C/C(=N\NC(=O)c1n[nH]c2c1CCC2)c1cccs1`, the AC35 is 15.6 µM.
In the case of `CC(=O)OC1CC(OC2C(O)CC(OC3C(O)CC(OC4CCC5(C)C(CCC6C5CCC5(C)C(C7=CC(=O)OC7)C(O)CC65O)C4)OC3C)OC2C)OC(C)C1OC1OC(CO)C(O)C(O)C1O` (stereo not given) it was 0.475 µM.
With `CCc1nc(N)nc(N)c1-c1ccc(Cl)cc1`, the AC35 is 6.43 µM.
`O=C1NC(=O)N(c2ccccc2)C(=O)/C1=C\C=C\c1ccccc1`: the AC35 is 5.21 µM.
With `CN(C)c1ccc(/C=N/Nc2nc3ccccc3o2)cc1` the figure was 18.2 µM.
In the case of `O=c1ccc2[n+]([O-])c3ccc(O)cc3oc-2c1` it was 5.65 µM; in that of `COc1ccc2cc(C(N)=O)/c(=N\NC(=O)c3ccccc3)oc2c1`, 17.2 µM; in that of `C[C@@H]1CN([C@H](C)CO)C(=O)c2cc(C#CCN(C)C)cnc2O[C@H]1CN(C)Cc1ccc(-c2ccccc2)cc1`, 2.79 µM.
With `Cc1nc(N)nc(N)c1CCCc1ccc(Cl)c(Cl)c1` the figure was 0.761 µM.
For `CCOc1cc(/C=N/Nc2cc(C)nc(-n3nc(C)cc3C)n2)ccc1O`, the AC35 is 1.14 µM.
With `Cc1[nH][nH]c(=O)c1C(c1c(C)[nH][nH]c1=O)c1cn(Cc2ccc(Cl)c(Cl)c2)c2ccccc12` the figure was 13.5 µM.
With `CCN(CC)C(=O)CN1C(=O)C(=O)c2ccccc21` the figure was 7.54 µM.
Turning to `COc1ccc(S(=O)(=O)Nc2ccc3c(c2)C(=O)N([C@H](C)CO)C[C@@H](C)[C@@H](CN(C)CC2CCCCC2)OCCCC[C@H](C)O3)cc1`, the AC35 was 12.2 µM.
In the case of `C(=NNc1ccc2ccccc2n1)c1ccccn1` it was 1.64 µM; in that of `C[C@@H]1O[C@@H](O[C@@H]2C=C3CC[C@@H]4C(CC[C@]5(C)[C@@H](c6ccc(=O)oc6)CC[C@]45O)[C@@]3(C)CC2)[C@H](O)[C@H](O)[C@H]1O` (stereo not given in full), 0.0735 µM; in that of `C[C@@H]1CCCCO[C@H](CN(C)Cc2ccc(C(=O)Nc3ccccc3N)cc2)[C@@H](C)CN([C@@H](C)CO)C(=O)c2cc(NS(=O)(=O)c3ccc(Cl)cc3)ccc2O1`, 8.5 µM.
Take `Nc1nc(=S)c2[nH]cnc2[nH]1`: the AC35 is 1.81 µM.
`CCN(Cc1ccccc1)c1ccc(/C=N/N=C(N)N)cc1`: the AC35 is 4.18 µM.
In the case of `C[C@H]1CN([C@@H](C)CO)C(=O)Cc2cc(NC(=O)CCC(F)(F)F)ccc2O[C@H]1CN(C)Cc1ccc(C(=O)Nc2ccccc2N)cc1` it was 2.13 µM.
In the case of `CCOc1ccc2nc(NC3=NC(c4ccc(OC)cc4)CC(=O)N3)nc(C)c2c1` (stereo not given) it was 10.2 µM; in that of `CCCCOc1ccc(NC(=O)C(=O)NCCCn2ccnc2)cc1`, 13.7 µM.
With `C[C@H]1CN([C@@H](C)CO)C(=O)c2cccc(NC(=O)CCCCCC(=O)Nc3ccccc3N)c2O[C@@H]1CN(C)Cc1ccc2c(c1)OCO2` the figure was 10.5 µM.
With `COC(=O)Cc1[nH]n(-c2nc3ccccc3s2)c(=O)c1C(C)=Nc1ccc(C)cc1`, the AC35 is 17.8 µM.
With `O=C(Nc1ccc(Br)cc1)c1ccc(F)c(S(=O)(=O)N2CCN(c3ccccn3)CC2)c1`, the AC35 was 2.69 µM.
With `C[C@@H]1CN([C@@H](C)CO)C(=O)c2cccc(N(C)C)c2O[C@@H]1CN(C)Cc1ccc(C(=O)Nc2ccccc2N)cc1`, the AC35 was 4.26 µM.
In the case of `CCN1C/C(=C/c2ccc(N3CCOCC3)cc2)C(=O)/C(=C/c2ccc(N3CCOCC3)cc2)C1` it was 10.5 µM.
Regarding `Cc1ccc(C(=O)O/N=C(\N)c2ccccn2)cc1`, the AC35 was 13.2 µM.
With `C[C@H]1CN([C@@H](C)CO)C(=O)c2cc(N(C)C)ccc2O[C@@H]1CN(C)Cc1ccc(C(=O)Nc2ccccc2N)cc1` the figure was 0.975 µM; with `COc1ccc(OC)c(Cc2cnc3nc(N)nc(N)c3c2C)c1`, 0.0574 µM.
In the case of `CN1C/C(=C/c2ccsc2)C(=O)/C(=C/c2ccsc2)C1` it was 13.7 µM; in that of `CC12CCC(O)CC1CCC1C2CCC2(C)C(C3=CC(=O)OC3)CCC12O` (stereo not given), 1.17 µM.
For the compound `CC(=O)Nc1ccc(S(=O)(=O)Nc2ccc(N3CCCCC3)cc2)cc1`, the AC35 was 19.2 µM.
In the case of `O=C(/C=C/c1cc(Br)ccc1O)c1ccco1` it was 17.7 µM.
With `CC(C)CC#Cc1ccc([C@@H]2[C@@H](CO)N3CCCCN(S(=O)(=O)c4ccc(F)cc4)C[C@H]23)cc1` the figure was 12.7 µM; with `C=C(C(=O)c1ccccc1)C(C(=C)C(=O)c1ccccc1)c1ccc(OC)cc1`, 8.69 µM.
With `CN=c1scc(-c2ccccc2F)n1/N=C/c1ccc[nH]1` the figure was 0.638 µM; with `C[C@H]1CN([C@@H](C)CO)S(=O)(=O)c2ccc(C#CC(C)(C)O)cc2O[C@@H]1CN(C)Cc1ccc(-c2ccccc2)cc1`, 0.689 µM.
For the compound `O=c1ccc2ccccc2c2ccccc12`, the AC35 was 15.5 µM.
As to `Cc1nc(N)nc(N)c1/C=C/C(C)(C)c1ccc(Cl)cc1`, the AC35 was less than 0.011 µM.
Consider `OC[C@H]1[C@@H](c2ccc(C#CC3CCCC3)cc2)[C@@H]2CN(CCC(F)(F)F)CCCCN12`, for which the AC35 was 9.23 µM.
In the case of `C[C@@H]1CN([C@@H](C)CO)C(=O)c2cccc(NS(=O)(=O)c3ccc(Cl)cc3)c2O[C@@H]1CN(C)Cc1ccc(C(=O)Nc2ccccc2N)cc1` it was 2.38 µM.
With `Cc1noc(C)c1NC(=O)Nc1ccc2c(c1)CC(=O)N([C@H](C)CO)C[C@@H](C)[C@@H](CN(C)Cc1ccc(Cl)c(Cl)c1)O2` the figure was 7.54 µM.
As for `C[C@@H]1CN([C@@H](C)CO)C(=O)Cc2cc(NC(=O)C3CCCCC3)ccc2O[C@H]1CN(C)Cc1ccc(C(=O)Nc2ccccc2N)cc1`, the AC35 was 0.83 µM.
With `CN(C[C@H]1N[C@@H](CO)[C@@H]1c1ccc(C2=CCCC2)cc1)C(=O)c1cccc(F)c1` the figure was 2.88 µM.
